# Measurements published in PubChem BioAssay (NCI).
#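 The compound was tested at five concentrations on cells cultured in 96-well plates, with a 48-hour exposure period. GI50 marks 50% less growth. The concentration for full growth arrest is given as TGI.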
# Columns and labels:
# Test in all cases: inhibition of tumour cell growth, NCI panel, 48 h
# CAKI-1 renal = tested on: CAKI-1 renal
# HCT-116 colon = tested on: HCT-116 colon
# IGROV1 ovarian = tested on: IGROV1 ovarian
# KM12 colon = tested on: KM12 colon
# NCI-H23 lung = tested on: NCI-H23 lung
# OVCAR-8 ovarian = tested on: OVCAR-8 ovarian
# PC-3 prostate = tested on: PC-3 prostate
# SK-MEL-28 melanoma = tested on: SK-MEL-28 melanoma
# SK-OV-3 ovarian = tested on: SK-OV-3 ovarian
# SNB-19 CNS = tested on: SNB-19 CNS
# T-47D breast = tested on: T-47D breast
# TK-10 renal = tested on: TK-10 renal
# UACC-62 melanoma = tested on: UACC-62 melanoma
SMILES,TGI (CAKI-1 renal),TGI (HCT-116 colon),TGI (IGROV1 ovarian),TGI (KM12 colon),TGI (NCI-H23 lung),TGI (OVCAR-8 ovarian),TGI (PC-3 prostate),TGI (SK-MEL-28 melanoma),TGI (SK-OV-3 ovarian),TGI (SNB-19 CNS),TGI (T-47D breast),TGI (TK-10 renal),TGI (UACC-62 melanoma),GI50 (IGROV1 ovarian),GI50 (KM12 colon)
CCOC(CN(C)C(=O)Nc1cccc2ccccc12)OCC,> 10 µM,> 10 µM,> 10 µM,> 10 µM,> 10 µM,> 10 µM,> 10 µM,> 10 µM,> 10 µM,> 10 µM,> 10 µM,> 10 µM,> 10 µM,,
CCOC(=O)c1cnc2oc3ccc(O)cc3c2c1C,> 100 µM,> 100 µM,> 100 µM,> 100 µM,> 100 µM,> 100 µM,> 100 µM,> 100 µM,> 100 µM,> 100 µM,> 100 µM,> 100 µM,> 100 µM,86.2 µM,70.3 µM
CC(C)Cn1cnc2c(NCC(C)O)nc3ccccc3c21 (stereo not drawn),> 100 µM,> 100 µM,> 100 µM,> 100 µM,> 100 µM,> 100 µM,> 100 µM,> 100 µM,> 100 µM,> 100 µM,> 100 µM,> 100 µM,> 100 µM,,
COC(=O)c1ccc(C)cc1CC1Cc2cc(C)ccc2C1=O (stereo not drawn),> 100 µM,> 100 µM,> 100 µM,> 100 µM,> 100 µM,> 100 µM,> 100 µM,> 100 µM,> 100 µM,> 100 µM,> 100 µM,> 100 µM,> 100 µM,,
[N-]=[N+]=Nc1ccccc1C(=O)N1C(=O)c2ccccc2C(=O)N(C(=O)c2ccccc2N=[N+]=[N-])c2ccccc21,> 100 µM,> 100 µM,> 100 µM,> 100 µM,> 100 µM,> 100 µM,> 100 µM,> 100 µM,> 100 µM,> 100 µM,> 100 µM,> 100 µM,> 100 µM,,
CCOC(=O)/C(C#N)=C\c1ccc(N(CCC(=O)O)CCC(=O)O)c(I)c1,> 10 µM,> 10 µM,> 10 µM,> 10 µM,> 10 µM,> 10 µM,> 10 µM,> 10 µM,> 10 µM,> 10 µM,> 10 µM,> 10 µM,> 10 µM,,
Cn1c2ccccc2n2c(N=O)c(-c3ccccc3)nc12,> 100 µM,> 100 µM,> 100 µM,69.8 µM,> 100 µM,> 100 µM,> 100 µM,> 100 µM,> 100 µM,> 100 µM,> 100 µM,> 100 µM,> 100 µM,,
